What was measured:
[1] = Blood/plasma partitional ratio, human blood; assay type: in vitro ADME; settings: fresh pooled whole blood with heparin, human whole blood, 37°C, read-out: blood/plasma partitioning (R b/P)
Protocol: The blood/plasma partitional ratio (R b/p) in rat and human blood was measured in vitro using fresh pooled blood including heparin. Whole blood was preincubated at 37°C in a water bath, and spiked with YL-IPA08 at 1 µM. The blood samples were incubated at 37°C for 1 h. After incubation, aliquots of 25 µl spiked whole blood were removed, and the remaining blood was centrifuged at 2,000 × g for 10 min, after which 25 µl aliquots of plasma were removed. Obtained blood and plasma samples were spiked with same volume of blank plasma or blood, respectively, and then immediately precipitated by adding 4× volumes of acetonitrile containing IS to get the same matrix. The concentrations of YL-IPA08 in blood and plasma were determined by LC-MS/MS.

[2] = Stability of YL-IPA08 in rat plasma (LC-MS/MS validation); assay type: in vitro ADME
Protocol: The quantification of YL-IPA08 in rat plasma was fully validated, and in vitro samples were particularly validated by selectivity, precision, and stability. The calibration curves of YL-IPA08 in rat plasma and in vitro incubates ranged in the concentrations of 0.5–500 ng/ml and 1–1,000 nM, respectively. The intra-day precision and inter-day precision […] were less than 15% at QC concentrations (full methodology validation results were presented in Supplementary Tables S1–S3).

[3] = rat, microsomes, 0 h, 1 μM, pH 7.4
[4] = Bioavailability study in rats (i.v. and p.o.); assay type: in vivo; settings: male, SD, rat, plasma, iv, i.v. 0.3 mg/kg
Protocol: Male SD rats (200-240 g) were obtained from Beijing Vital River Laboratory Animal Technology Co., Ltd. Animals were housed in a temperature- and humidity-controlled room with a 12 h light/dark cycle. They were fasted 12 h before the experiments and had ad libitum access to water. The animal experiments were conducted in the Beijing Center for Drug Safety Evaluation and according to a protocol (IACUC-DWZX-2020-691) approved by the Institutional Animal Care and Use Committee of the Center, which followed the guidelines of the Association for Assessment and Accreditation of Laboratory Animal Care International (AAALAC). […] Pharmacokinetic parameters were calculated by the noncompartmental method using WinNonlin 7.0 (Pharsight, CA). The area under the plasma concentration time curve (AUC) from time 0 to the last time point with a measurable concentration (AUC0-t) was calculated by trapezoidal method. Bioavailability (%F) was calculated as the ratio of the mean dose-normalized AUC values for oral and intravenous dosed groups [Fp.o. = […].)]. In vivo plasma clearance and volume of distribution were archived from the pharmacokinetic study via i.v. injection.

[5] = Freeze-thaw three cycles, HQC (400ng/ml)
[6] = Freeze-thaw three cycles, LQC (1ng/ml)
[7] = Freeze-thaw three cycles, MQC (20ng/ml)
[8] = In auto-sample for 24 h, HQC (400ng/ml)
[9] = In auto-sample for 24 h, LQC (1ng/ml)
[10] = In auto-sample for 24 h, MQC (20ng/ml)
[11] = Room temperature for 24 h, HQC (400ng/ml)
[12] = Room temperature for 24 h, LQC (1ng/ml)
[13] = Room temperature for 24 h, MQC (20ng/ml)

CCN(Cc1ccccn1)C(=O)Cc1c(-c2ccc(Cl)c(Cl)c2)nc2cc(C)ccn12 [YL-IPA08]
blood plasma ratio at 1 h, 1 µM [1]: 1.58 ± 0.06 | Accuracy ([2]; 4℃ for 24 h, HQC (400ng/ml)): 99.8±8.0% | Measured value ([2]; 4℃ for 24 h, HQC (400ng/ml)): 399.00 ± 31.76 ng/mL | Accuracy ([2]; 4℃ for 24 h, LQC (1ng/ml)): 113.0±9.0% | Measured value ([2]; 4℃ for 24 h, LQC (1ng/ml)): 1.13 ± 0.09 ng/mL | Accuracy ([2]; 4℃ for 24 h, MQC (20ng/ml)): 108.7±5.3% | Measured value ([2]; 4℃ for 24 h, MQC (20ng/ml)): 21.73 ± 1.07 ng/mL | Accuracy ([2]; -40℃ for 7 d, HQC (400ng/ml)): 105.1±8.5% | Measured value ([2]; -40℃ for 7 d, HQC (400ng/ml)): 420.33 ± 33.84 ng/mL | Accuracy ([2]; -40℃ for 7 d, LQC (1ng/ml)): 105.0±6.0% | Measured value ([2]; -40℃ for 7 d, LQC (1ng/ml)): 1.05 ± 0.06 ng/mL | Accuracy ([2]; -40℃ for 7 d, MQC (20ng/ml)): 105.0±4.1% | Measured value ([2]; -40℃ for 7 d, MQC (20ng/ml)): 21.00 ± 0.82 ng/mL | Accuracy [2, 5]: 96.8±2.6% | Measured value [2, 5]: 387.33 ± 10.21 ng/mL | Accuracy [2, 6]: 114.0±5.0% | Measured value [2, 6]: 1.14 ± 0.05 ng/mL | Accuracy [2, 7]: 103.0±1.8% | Measured value [2, 7]: 20.60 ± 0.36 ng/mL | Accuracy [2, 8]: 98.6±3.0% | Measured value [2, 8]: 394.33 ± 12.06 ng/mL | Accuracy [2, 9]: 95.0±2.0% | Measured value [2, 9]: 0.95 ± 0.02 ng/mL | Accuracy [2, 10]: 100.4±1.2% | Measured value [2, 10]: 20.07 ± 0.25 ng/mL | Accuracy [2, 11]: 102.5±1.4% | Measured value [2, 11]: 410.00 ± 5.57 ng/mL | Accuracy [2, 12]: 110.0±8.0% | Measured value [2, 12]: 1.10 ± 0.08 ng/mL | Accuracy [2, 13]: 112.5±4.1% | Measured value [2, 13]: 22.50 ± 0.82 ng/mL | percent of remaining [3]: 100.00% | AUC(0-inf) [4]: 71.3 ± 12.3 ng·h/mL | AUC(0-t) [4]: 70.6 ± 12.2 ng·h/mL | clearance [4]: 71.7 ± 11.5 mL/min/kg | half-life [4]: 1.13 ± 0.07 h | concentration at 0.033 h ([4]; 0.033 h): 220 ± 32.5 ng/mL | concentration at 0.083 h ([4]; 0.083 h): 140 ± 36.2 ng/mL | concentration at 0.25 h ([4]; 0.25 h): 38.9 ± 5.41 ng/mL | concentration at 0.5 h ([4]; 0.5 h): 18.2 ± 1.29 ng/mL | concentration at 1 h ([4]; 1 h): 8.44 ± 1.06 ng/mL | concentration at 2 h ([4]; 2 h): 4.3 ± 0.57 ng/mL | concentration at 4 h ([4]; 4 h): 1.84 ± 0.39 ng/mL | concentration at 6 h ([4]; 6 h): 1.09 ± 0.22 ng/mL | concentration at 8 h ([4]; 8 h): 0.81 ± 0.08 ng/mL | concentration at 12 h ([4]; 12 h): 0.48 ± 0.06 ng/mL | MRT last ([4]; read-out: MRT(0–t)): 1.36 ± 0.11 h | Vd ([4]; read-out: Vz): 6.98 ± 0.74 L/kg

Source: PMC7732531 (Frontiers in Pharmacology, 2020)
